Data as given in the supplement of paper PMC4862054.
Where “and” joins values, the source holds several entries; their conditions need not be identical. Identical values can stand only once.

Experiments:
Test in all cases: normalised viability (% of control), CellTiter-Blue; higher = more viable cells (about 100 = DMSO control)
Conditions in all cases: incubation time: 72 h
[1] = system: BT-549
Method in brief: (§1)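 Normalised viability is given for a single listed concentration of the series. In 384-well plates, breast cancer cell lines were incubated 72 h with compound, then read with CellTiter-Blue (2 h, 37 °C) at 560/590 nm. Per-plate scaling set vehicle to 100 and a positive kill control to 0, with Z'-factor quality control.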

[2] = system: CAL-148
Method in brief: as §1

[3] = system: CAL-85-1
Method in brief: as §1

[4] = system: HCC1937
Method in brief: as §1

[5] = system: HDQ-P1
Method in brief: as §1

[6] = system: MDA-MB-231
Method in brief: as §1

[7] = system: MDA-MB-468
Method in brief: as §1

[8] = system: SK-BR-3
Method in brief: as §1

[9] = system: BT-474
Method in brief: as §1

[10] = system: BT-549; remark: listed apart in the source
Method in brief: as §1

[11] = system: CAL-120
Method in brief: as §1

[12] = system: CAL-148; remark: listed apart in the source
Method in brief: as §1

[13] = system: CAL-51
Method in brief: as §1

[14] = system: DU-4475
Method in brief: as §1

[15] = system: HCC1599
Method in brief: as §1

[16] = system: HCC1937; remark: listed apart in the source
Method in brief: as §1

[17] = system: HDQ-P1; remark: listed apart in the source
Method in brief: as §1

[18] = system: Hs578T
Method in brief: as §1

[19] = system: MDA-MB-436
Method in brief: as §1

[20] = system: MFM-223
Method in brief: as §1

[21] = system: SK-BR-3; remark: listed apart in the source
Method in brief: as §1

[22] = system: CAL-148; remark: listed apart in the source
Experimental: (§2)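 DSRT, CellTiter-Blue viability, 72 h incubation. Signal is normalised to DMSO and benzethonium chloride controls. Value is the normalised response at dose 6.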

[23] = system: CAL-51; remark: listed apart in the source
Experimental: as §2

[24] = system: CAL-85-1; remark: listed apart in the source
Experimental: as §2

[25] = system: DU-4475; remark: listed apart in the source
Experimental: as §2

[26] = system: HDQ-P1; remark: listed apart in the source
Experimental: as §2

[27] = system: MDA-MB-453
Experimental: as §2

O=C(O)C1(C(=O)O)CCC1.[NH2-].[NH2-].[Pt+2] [Carboplatin]
Conditions	normalised viability [%]
[1], 100 nM	101
[2], 10 nM	92.4
[3], 10 nM	87.3
[4], 100 nM	94.5
[5], 10 nM	96.6
[6], 100 nM	92.7
[7], 100 nM	98.8
[8], 100 nM	91.1
[9], 10 nM	127
[9], 1000 nM	121
[9], 10000 nM	113
[10], 10 nM	83.4
[10], 1000 nM	92
[10], 10000 nM	87.7
[11], 10 nM	87
[11], 1000 nM	95.4
[11], 10000 nM	78.3
[12], 3 nM	90
[12], 30 nM	96
[12], 100 nM	95.4
[13], 3 nM	104
[13], 30 nM	99
[13], 100 nM	96.2
[14], 3 nM	99
[14], 30 nM	74.5
[14], 100 nM	89.4
[15], 10 nM	94.5
[15], 1000 nM	90.7
[15], 10000 nM	87.1
[16], 10 nM	82.3
[16], 1000 nM	103
[16], 10000 nM	54.2
[17], 3 nM	108
[17], 30 nM	107
[17], 100 nM	103
[18], 10 nM	105
[18], 1000 nM	94.1
[18], 10000 nM	109
[19], 10 nM	80.3
[19], 1000 nM	95.9
[19], 10000 nM	82.2
[20], 10 nM	86
[20], 1000 nM	98.4
[20], 10000 nM	48.7
[21], 10 nM	100
[21], 1000 nM	103
[21], 10000 nM	113
[22], 300 nM	106
[23], 300 nM	106
[24], 300 nM	86.1
[25], 300 nM	87.6
[26], 300 nM	87.6
[27], 300 nM	107

COc1cc2c(Oc3ccc4[nH]c(C)cc4c3F)ncnc2cc1OCCCN1CCCC1 [Cediranib]
Conditions	normalised viability [%]
[1], 10 nM	78.1
[2], 1 nM	97.3
[3], 1 nM	105
[4], 10 nM	96.6
[5], 1 nM	92.7
[6], 10 nM	82.1
[7], 10 nM	103
[8], 10 nM	65.8
[9], 1 nM	109
[9], 100 nM	101
[9], 1000 nM	91.1
[10], 1 nM	108
[10], 100 nM	104
[10], 1000 nM	70.8
[11], 1 nM	117
[11], 100 nM	110
[11], 1000 nM	81.4
[12], 0.3 nM	103
[12], 3 nM	92.8
[12], 10 nM	107
[13], 0.3 nM	90.5
[13], 3 nM	88.7
[13], 10 nM	88.6
[14], 0.3 nM	103
[14], 3 nM	80.4
[14], 10 nM	87.3
[15], 1 nM	101
[15], 100 nM	114
[15], 1000 nM	76.7
[16], 1 nM	66.2
[16], 100 nM	78.5
[16], 1000 nM	83.4
[17], 0.3 nM	84.8
[17], 3 nM	90.6
[17], 10 nM	100
[18], 1 nM	110
[18], 100 nM	106
[18], 1000 nM	92.2
[19], 1 nM	85.6
[19], 100 nM	92
[19], 1000 nM	91.8
[20], 1 nM	99.9
[20], 100 nM	87
[20], 1000 nM	47.2
[21], 1 nM	100
[21], 100 nM	95.7
[21], 1000 nM	104
[22], 30 nM	103
[23], 30 nM	86
[24], 30 nM	90.4
[25], 30 nM	95
[26], 30 nM	72.9
[27], 30 nM	75.9

Cc1ccc(-c2cc(C(F)(F)F)nn2-c2ccc(S(N)(=O)=O)cc2)cc1 [Celecoxib]
Conditions	normalised viability [%]
[1], 100 nM	108
[2], 10 nM	97.2
[3], 10 nM	76.9
[4], 100 nM	94.9
[5], 10 nM	109
[6], 100 nM	89
[7], 100 nM	111
[8], 100 nM	83.3
[9], 10 nM	111
[9], 1000 nM	97.3
[9], 10000 nM	105
[10], 10 nM	86.6
[10], 1000 nM	106
[10], 10000 nM	78.4
[11], 10 nM	94.5
[11], 1000 nM	79.7
[11], 10000 nM	81.9
[12], 3 nM	86.8
[12], 30 nM	97
[12], 100 nM	91.2
[13], 3 nM	99
[13], 30 nM	98.3
[13], 100 nM	94.4
[14], 3 nM	83.8
[14], 30 nM	93.1
[14], 100 nM	106
[15], 10 nM	99
[15], 1000 nM	95.7
[15], 10000 nM	65.6
[16], 10 nM	85.3
[16], 1000 nM	80.3
[16], 10000 nM	79.4
[17], 3 nM	104
[17], 30 nM	93.5
[17], 100 nM	85
[18], 10 nM	113
[18], 1000 nM	108
[18], 10000 nM	92.6
[19], 10 nM	99.3
[19], 1000 nM	77.8
[19], 10000 nM	80.1
[20], 10 nM	95.9
[20], 1000 nM	92.1
[20], 10000 nM	86.3
[21], 10 nM	87.6
[21], 1000 nM	90.2
[21], 10000 nM	79.7
[22], 300 nM	88
[23], 300 nM	97
[24], 300 nM	70.2
[25], 300 nM	96
[26], 300 nM	72.2
[27], 300 nM	92.5

Nc1ncn([C@H]2C[C@H](O)[C@@H](CO)O2)c(=O)n1 [Decitabine]
Conditions	normalised viability
[1], 100 nM	102% and 98.4%
[2], 10 nM	87.3% and 90%
[3], 10 nM	96% and 100%
[4], 100 nM	101% and 108%
[5], 10 nM	109% and 95.9%
[6], 100 nM	86.7% and 95%
[7], 100 nM	32.4% and 32.1%
[9], 10 nM	109% and 104%
[9], 1000 nM	89.4% and 86.7%
[9], 10000 nM	95.1% and 79.7%
[10], 10 nM	94.6% and 101%
[10], 1000 nM	81.7% and 89.3%
[10], 10000 nM	57.7% and 65.1%
[11], 10 nM	88.1% and 89.4%
[11], 1000 nM	85.4% and 89%
[11], 10000 nM	58.3% and 62.3%
[12], 3 nM	92.8% and 76.2%
[12], 30 nM	91.4% and 85.8%
[12], 100 nM	86.2% and 96.3%
[13], 3 nM	116% and 108%
[13], 30 nM	117% and 101%
[13], 100 nM	101% and 96.8%
[14], 3 nM	110% and 98.7%
[14], 30 nM	81.5% and 97.7%
[14], 100 nM	86.9% and 96.8%
[15], 10 nM	112% and 107%
[15], 10000 nM	82% and 106%
[16], 10 nM	120% and 99%
[16], 1000 nM	77.2% and 76.6%
[16], 10000 nM	69.2% and 62.8%
[17], 30 nM	93% and 96.6%
[17], 100 nM	96.1% and 92%
[18], 10 nM	103% and 112%
[18], 1000 nM	92.5% and 114%
[18], 10000 nM	83.6% and 93.2%
[19], 10 nM	85% and 75%
[19], 1000 nM	69.6% and 68.2%
[19], 10000 nM	70.5% and 71.4%
[20], 10 nM	80.2% and 104%
[20], 1000 nM	84.7% and 102%
[20], 10000 nM	90.1% and 98.6%
[21], 10 nM	84.5% and 98.1%
[21], 1000 nM	90.2% and 88.1%
[21], 10000 nM	69.1% and 74.5%
[22], 300 nM	97.3% and 76%
[23], 300 nM	99% and 92.1%
[24], 300 nM	81.5% and 90.7%
[25], 300 nM	86% and 85.5%
[26], 300 nM	65.3% and 81.8%
[27], 300 nM	95.2% and 101%
